In paper PMC10234496 (Organic letters, 2022):

Experiments:
E. faecium = assay: MIC against E. faecium; type: cell-based, Enterococcus faecium; settings: Gram-positive; measured in duplicate
S. aureus = assay: MIC against S. aureus; type: cell-based, Staphylococcus aureus; settings: Gram-positive; measured in duplicate
K. pneumoniae = assay: MIC against K. pneumoniae; type: cell-based, Klebsiella pneumoniae; settings: Gram-negative; measured in duplicate
A. baumannii = assay: MIC against A. baumannii; type: cell-based, Acinetobacter baumannii; settings: Gram-negative; measured in duplicate
P. aeruginosa = assay: MIC against P. aeruginosa; type: cell-based, Pseudomonas aeruginosa; settings: Gram-negative; measured in duplicate
E. cloacae = assay: MIC against E. cloacae; type: cell-based; settings: Gram-negative; measured in duplicate
E. coli = assay: MIC against E. coli; type: cell-based, Escherichia coli; settings: Gram-negative; measured in duplicate
VRE clinical isolates = assay: MIC against VRE clinical isolates; type: cell-based, Vancomycin-resistant Enterococcus; settings: Figure 3, Table S9
MDR S. aureus strains = assay: MIC against MDR S. aureus strains; type: cell-based; settings: Figure 3, Table S9

Substance	MIC E. faecium (E. faecium) [µg/mL]	MIC S. aureus (S. aureus) [µg/mL]	MIC K. pneumoniae (K. pneumoniae) [µg/mL]	MIC A. baumannii (A. baumannii) [µg/mL]	MIC P. aeruginosa (P. aeruginosa) [µg/mL]	MIC E. cloacae (E. cloacae) [µg/mL]	MIC E. coli (E. coli) [µg/mL]	MIC against VRE clinical isolates (VRE clinical isolates) [µg/mL]	MIC against MDR S. aureus strains (MDR S. aureus strains) [µg/mL]
Laterocidine	>128	>128	2	0.5	2	1	0.5		
Paenibacterin	8	16	8	8	8	4	4		
Tridecaptin A	64	128	1	4	64	2	1	128	128
